From ChEMBL document CHEMBL1156994, “Chemopreventive activities of etodolac and oxyphenbutazone against mouse skin carcinogenesis” (Bioorg Med Chem Lett, 2010)

Assays:
[1] = system: Mus musculus; test: Inhibition of DMBA-induced/TPA-promoted skin carcinogenesis in ICR mouse assessed as reduction in tumor burden at 0.0025% topically applied qd treated one week before DMBA-TPA challenge after 20 weeks relative to control; assay type: functional
[2] = system: Mus musculus; test: Toxicity in ICR mouse at 0.0025%, po; assay type: organism-based; settings: in vivo
[3] = system: Mus musculus; test: Inhibition of peroxynitrite-induced/TPA promoted skin carcinogenesis in HOS-HR-1 mouse assessed as increase in tumor latency period at 0.0025%, po treated one week before peroxynitrite-TPA challenge after 20 weeks relative to control; assay type: functional
[4] = system: Mus musculus; test: Inhibition of peroxynitrite-induced/TPA promoted skin carcinogenesis in HOS-HR-1 mouse assessed as decrease in tumor incidence at 0.0025%, po treated one week before peroxynitrite-TPA challenge after 20 weeks relative to control; assay type: functional
[5] = system: Mus musculus; test: Inhibition of peroxynitrite-induced/TPA promoted skin carcinogenesis in HOS-HR-1 mouse assessed as decrease in tumor burdon at 0.0025%, po treated one week before peroxynitrite-TPA challenge after 20 weeks relative to control; assay type: functional
[6] = system: Mus musculus; test: Toxicity in HOS-HR-1 mouse at 0.0025%, po; assay type: organism-based; settings: in vivo

Row | SMILES | inhibition (INH) [1] [%] | Activity [2] | inhibition (INH) [3] [%] | inhibition (INH) [4] [%] | inhibition (INH) [5] [%] | Activity [6]
1 | CCc1cccc2c3c([nH]c12)C(CC)(CC(=O)O)OCC3 (stereo unspecified) [ETODOLAC] | 40 | Non-toxic | – | – | – | –
2 | CCCCC1C(=O)N(c2ccccc2)N(c2ccc(O)cc2)C1=O (stereo unspecified) [OXYPHENBUTAZONE ANHYDROUS] | – | – | 29 | >20 | >50 | Non-toxic
